Earlier results as cited in US20240041743A1, “SYNERGISTIC TETRAPEPTIDE COMBINATION” (BASF CORPORATION, priority 2017, published 2024).
Residues, ends and D or L forms follow the SMILES beside them.

Key:
[1] = tested on: skin firmness; details: 3% Dermican
[2] = tested on: skin texture, skin smoothing, firmness and elasticity; details: 3% Syniorage

| SMILES | bi-daily application needed to achieve an improvement of skin firmness [1] [months] | improvement on skin firmness after the first 2 months of application ([1]; bi-daily application, first 2 months) | bi-daily application needed to improve skin texture, skin smoothing, and biomechanical properties of firmness and elasticity [2] [months] |
| --- | --- | --- | --- |
| CC(=O)N[C@@H](CCC(N)=O)C(=O)N[C@@H](CC(=O)O)C(=O)N[C@H](C(=O)N[C@@H](Cc1c[nH]cn1)C(=O)O)C(C)C [Dermican™, N-Acetyl-Glutaminyl-Aspartyl-Valyl-Histidine] (Ac-QDVH-OH) | 4 | no improvement was observed | – |
| CC(=O)N1CCC[C@H]1C(=O)N1CCC[C@H]1C(=O)N[C@@H](Cc1ccc(O)cc1)C(=O)N[C@@H](CC(C)C)C(=O)O [Syniorage™, N-Acetyl-Prolyl-Prolyl-Tyrosyl-Leucine] (Ac-PPYL-OH) | – | – | 2 |
